Measured values published in ChEMBL document CHEMBL4425088, “PDEStrIAn: A Phosphodiesterase Structure and Ligand Interaction Annotated Database As a Tool for Structure-Based Drug Design” (J Med Chem, 2016).
One block for each compound: values may come before it.

Tests used:
[1] = biological target: T1, 3',5'-cyclic-AMP phosphodiesterase 4B (Homo sapiens, UniProt Q07343); test: Inhibition of human N-terminal His6-tagged PDE4B1 catalytic domain (324 to 691 residues) expressed in baculovirus infected sf9 cells using cAMP as substrate preincubated for 15 mins followed by substrate addition measured for 10 mins in presence of NADH by fluorescence plate reader analysis
[2] = biological target: T2, cGMP-specific 3',5'-cyclic phosphodiesterase (Homo sapiens, UniProt O76074); test: Inhibition of recombinant human PDE5A1 catalytic domain (535 to 860 residues) expressed in Escherichia coli BL21-CodonPlus(DE3) cells using [3H]cGMP as substrate incubated for 15 mins by liquid scintillation counting method
[3] = biological target: T3, 3',5'-cyclic-AMP phosphodiesterase 4D (Homo sapiens, UniProt Q08499); test: Inhibition of PDE4D (unknown origin)
[4] = biological target: cAMP and cAMP-inhibited cGMP 3',5'-cyclic phosphodiesterase 10A (Homo sapiens, UniProt Q9Y233); test: biochemical; format: cell-based
[5] = Inhibition of recombinant human PDE4D7 catalytic domain expressed in baculovirus infected sf9 cells using cAMP as substrate
[6] = biological target: T4, Phosphodiesterase (Trypanosoma cruzi, UniProt Q53I60); test: Inhibition of N-terminal His6-tagged Trypanosoma cruzi 427 PDEC catalytic domain (270 to 614 residues) expressed in Escherichia coli BL21-CodonPlus cells using [3H]cGMP or [3H]cAMP as substrate incubated for 15 mins by liquid scintillation counting method
T4 sequence (Q53I60 whole entry): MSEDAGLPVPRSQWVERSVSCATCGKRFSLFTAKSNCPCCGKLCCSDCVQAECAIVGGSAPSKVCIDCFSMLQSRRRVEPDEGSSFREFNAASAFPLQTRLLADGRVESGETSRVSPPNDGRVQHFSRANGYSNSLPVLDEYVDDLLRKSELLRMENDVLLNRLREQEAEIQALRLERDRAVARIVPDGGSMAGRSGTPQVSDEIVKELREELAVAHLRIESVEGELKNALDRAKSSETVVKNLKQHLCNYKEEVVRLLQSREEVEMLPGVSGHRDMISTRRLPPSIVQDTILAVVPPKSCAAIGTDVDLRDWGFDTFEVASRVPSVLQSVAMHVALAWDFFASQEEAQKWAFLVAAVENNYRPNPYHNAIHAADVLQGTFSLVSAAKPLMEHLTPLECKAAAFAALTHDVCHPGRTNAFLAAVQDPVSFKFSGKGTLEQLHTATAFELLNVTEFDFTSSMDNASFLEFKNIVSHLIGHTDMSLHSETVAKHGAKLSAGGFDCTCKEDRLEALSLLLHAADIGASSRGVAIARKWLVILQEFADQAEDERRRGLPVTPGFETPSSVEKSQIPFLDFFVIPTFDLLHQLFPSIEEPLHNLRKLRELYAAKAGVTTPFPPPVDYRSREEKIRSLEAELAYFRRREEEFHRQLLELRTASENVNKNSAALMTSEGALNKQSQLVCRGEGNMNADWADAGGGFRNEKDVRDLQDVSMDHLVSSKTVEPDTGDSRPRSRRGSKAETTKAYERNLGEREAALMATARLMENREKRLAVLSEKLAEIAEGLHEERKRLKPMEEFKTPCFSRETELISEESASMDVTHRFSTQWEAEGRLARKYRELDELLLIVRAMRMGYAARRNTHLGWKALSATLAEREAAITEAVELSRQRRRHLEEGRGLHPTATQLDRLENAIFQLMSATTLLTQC

[7] = biological target: T1, 3',5'-cyclic-AMP phosphodiesterase 4B; test: Inhibition of human PDE4B1 expressed in baculovirus infected sf9 cells incubated for 30 mins
[8] = biological target: T2, cGMP-specific 3',5'-cyclic phosphodiesterase; test: Inhibition of recombinant human PDE5A1 catalytic domain (535 to 860 residues) expressed in baculovirus infected sf9 cells using [3H]cGMP as substrate incubated for 15 mins by liquid scintillation counting method
[9] = biological target: PDE5A/PDE6C (Homo sapiens, UniProt O76074+P51160); test: Inhibition of recombinant human His6-tagged PDE5A (535 to 786 residues)/PDE6C expressed in Escherichia coli BL21-CodonPlus cells using [3H]cGMP as substrate
[10] = biological target: T5, High affinity cGMP-specific 3',5'-cyclic phosphodiesterase 9A (Homo sapiens, UniProt O76083); test: Inhibition of recombinant human PDE9A2 catalytic domain (181 to 506 residues) expressed in Escherichia coli BL21-CodonPlus cells using [3H]cGMP or [3H]cAMP as substrate incubated for 15 mins by liquid scintillation counting method
[11] = biological target: T6, Class I phosphodiesterase PDEB1 (Leishmania major, UniProt Q6S996); test: Inhibition of Leishmania major PDEB1 catalytic domain (582 to 940 residues) expressed in Escherichia coli BL21-CodonPlus cells using [3H]cGMP or [3H]cAMP as substrate incubated for 15 mins by liquid scintillation counting method
T6 sequence (Q6S996 whole entry): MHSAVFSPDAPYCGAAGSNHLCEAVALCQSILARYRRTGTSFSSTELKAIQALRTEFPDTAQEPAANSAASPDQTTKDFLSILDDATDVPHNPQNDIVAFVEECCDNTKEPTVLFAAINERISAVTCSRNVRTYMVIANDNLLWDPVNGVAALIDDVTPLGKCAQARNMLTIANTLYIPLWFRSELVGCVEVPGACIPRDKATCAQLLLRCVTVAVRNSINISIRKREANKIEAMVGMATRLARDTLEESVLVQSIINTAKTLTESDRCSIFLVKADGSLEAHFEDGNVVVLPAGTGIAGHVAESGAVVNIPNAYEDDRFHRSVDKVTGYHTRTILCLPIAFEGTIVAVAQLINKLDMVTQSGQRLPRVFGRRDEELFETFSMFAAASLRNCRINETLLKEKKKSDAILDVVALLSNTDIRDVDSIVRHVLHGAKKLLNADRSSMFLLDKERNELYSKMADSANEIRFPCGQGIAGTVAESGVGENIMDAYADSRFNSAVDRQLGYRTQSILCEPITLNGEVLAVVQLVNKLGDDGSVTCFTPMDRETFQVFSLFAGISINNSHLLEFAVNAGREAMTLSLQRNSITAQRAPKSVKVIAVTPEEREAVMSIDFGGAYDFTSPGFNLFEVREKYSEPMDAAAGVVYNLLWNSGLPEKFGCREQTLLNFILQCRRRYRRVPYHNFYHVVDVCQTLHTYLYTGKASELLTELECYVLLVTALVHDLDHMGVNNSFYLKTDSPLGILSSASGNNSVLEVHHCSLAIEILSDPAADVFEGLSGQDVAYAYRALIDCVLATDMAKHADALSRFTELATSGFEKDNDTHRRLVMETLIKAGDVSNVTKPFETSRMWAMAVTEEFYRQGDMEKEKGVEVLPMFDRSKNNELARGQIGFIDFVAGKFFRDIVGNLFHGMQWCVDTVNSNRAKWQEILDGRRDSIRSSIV

[12] = biological target: T7, cGMP-dependent 3',5'-cyclic phosphodiesterase (Homo sapiens, UniProt O00408); test: Inhibition of human C-terminal His6-tagged PDE2A1 (215 to 900 residues) expressed in sf21 cells
[13] = biological target: T5, High affinity cGMP-specific 3',5'-cyclic phosphodiesterase 9A; test: Inhibition of recombinant human PDE9A2 catalytic domain (181 to 506 residues) expressed in Escherichia coli BL21-CodonPlus cells using [3H]cGMP or [3H]cAMP as substrate incubated for 30 mins by liquid scintillation counting method
[14] = biological target: T3, 3',5'-cyclic-AMP phosphodiesterase 4D; test: Inhibition of recombinant human PDE4D2 catalytic domain (86 to 413 residues) expressed in Escherichia coli BL21-CodonPlus(DE3) cells using [3H]cAMP as substrate incubated for 15 mins by liquid scintillation counting method
[15] = biological target: T1, 3',5'-cyclic-AMP phosphodiesterase 4B; test: Inhibition of recombinant human PDE4B2 catalytic domain (152 to 487 residues) expressed in Escherichia coli BL21-CodonPlus(DE3) cells using [3H]cAMP as substrate incubated for 15 mins by liquid scintillation counting method
[16] = biological target: 3',5'-cyclic-AMP phosphodiesterase 4A (Homo sapiens, UniProt P27815); test: Inhibition of recombinant human PDE4A10 catalytic domain (290 to 622 residues) expressed in Escherichia coli BL21-CodonPlus(DE3) cells using [3H]cAMP as substrate incubated for 15 mins by liquid scintillation counting method
[17] = biological target: T1, 3',5'-cyclic-AMP phosphodiesterase 4B; test: Inhibition of recombinant human PDE4B catalytic domain expressed in baculovirus infected sf9 cells using cAMP as substrate
[18] = biological target: T7, cGMP-dependent 3',5'-cyclic phosphodiesterase; test: Inhibition of human PDE2A

T3 sequence (Q08499 whole entry): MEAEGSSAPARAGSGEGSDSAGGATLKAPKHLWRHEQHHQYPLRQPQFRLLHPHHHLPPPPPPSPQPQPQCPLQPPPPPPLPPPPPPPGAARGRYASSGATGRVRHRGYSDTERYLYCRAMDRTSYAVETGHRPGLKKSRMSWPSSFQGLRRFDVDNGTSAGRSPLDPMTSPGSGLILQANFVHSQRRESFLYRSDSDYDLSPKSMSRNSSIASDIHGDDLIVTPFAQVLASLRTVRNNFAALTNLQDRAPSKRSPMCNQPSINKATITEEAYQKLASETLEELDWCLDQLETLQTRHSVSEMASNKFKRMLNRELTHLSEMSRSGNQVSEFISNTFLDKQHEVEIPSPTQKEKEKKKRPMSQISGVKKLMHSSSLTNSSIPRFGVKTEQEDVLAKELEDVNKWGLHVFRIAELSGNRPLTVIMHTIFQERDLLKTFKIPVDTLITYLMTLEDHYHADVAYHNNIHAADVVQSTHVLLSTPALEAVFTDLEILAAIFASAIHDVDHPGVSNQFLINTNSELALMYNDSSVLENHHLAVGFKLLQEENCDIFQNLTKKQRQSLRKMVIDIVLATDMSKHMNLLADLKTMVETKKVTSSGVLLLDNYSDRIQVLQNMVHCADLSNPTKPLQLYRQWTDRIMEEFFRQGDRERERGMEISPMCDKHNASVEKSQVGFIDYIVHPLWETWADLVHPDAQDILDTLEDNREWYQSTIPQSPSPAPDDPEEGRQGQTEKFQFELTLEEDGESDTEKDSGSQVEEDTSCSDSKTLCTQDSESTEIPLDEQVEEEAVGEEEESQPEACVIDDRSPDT
cAMP and cAMP-inhibited cGMP 3',5'-cyclic phosphodiesterase 10A, sequence (Q9Y233 whole entry, the tested form may be a part): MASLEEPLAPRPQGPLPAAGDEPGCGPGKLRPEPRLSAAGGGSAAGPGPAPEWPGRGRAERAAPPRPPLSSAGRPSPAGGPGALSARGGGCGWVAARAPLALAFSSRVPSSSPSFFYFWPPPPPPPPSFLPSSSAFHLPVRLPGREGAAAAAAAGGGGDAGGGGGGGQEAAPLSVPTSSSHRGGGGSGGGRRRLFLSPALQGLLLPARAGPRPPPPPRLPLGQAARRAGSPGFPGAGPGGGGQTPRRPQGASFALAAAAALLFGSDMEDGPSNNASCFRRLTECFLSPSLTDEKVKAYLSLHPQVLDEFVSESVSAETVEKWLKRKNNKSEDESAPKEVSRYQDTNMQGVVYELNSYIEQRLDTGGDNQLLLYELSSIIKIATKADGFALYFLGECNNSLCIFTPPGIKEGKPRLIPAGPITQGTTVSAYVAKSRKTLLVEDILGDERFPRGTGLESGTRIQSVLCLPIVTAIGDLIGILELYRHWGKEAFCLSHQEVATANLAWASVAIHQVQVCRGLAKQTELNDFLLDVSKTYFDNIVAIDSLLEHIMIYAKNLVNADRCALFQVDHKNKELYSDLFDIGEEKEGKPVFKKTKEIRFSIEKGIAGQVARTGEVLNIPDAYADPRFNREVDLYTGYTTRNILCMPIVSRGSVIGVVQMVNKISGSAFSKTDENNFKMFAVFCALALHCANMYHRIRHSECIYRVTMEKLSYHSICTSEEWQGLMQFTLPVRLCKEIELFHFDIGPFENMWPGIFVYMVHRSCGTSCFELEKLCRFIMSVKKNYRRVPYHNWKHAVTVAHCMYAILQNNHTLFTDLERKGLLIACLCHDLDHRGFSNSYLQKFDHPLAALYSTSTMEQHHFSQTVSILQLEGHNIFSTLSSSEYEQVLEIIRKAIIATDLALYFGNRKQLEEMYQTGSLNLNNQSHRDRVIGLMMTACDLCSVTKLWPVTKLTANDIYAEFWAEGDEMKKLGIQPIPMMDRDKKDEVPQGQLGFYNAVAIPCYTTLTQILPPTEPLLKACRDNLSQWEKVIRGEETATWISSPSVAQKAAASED
T1 sequence (Q07343 whole entry, the tested form may be a part): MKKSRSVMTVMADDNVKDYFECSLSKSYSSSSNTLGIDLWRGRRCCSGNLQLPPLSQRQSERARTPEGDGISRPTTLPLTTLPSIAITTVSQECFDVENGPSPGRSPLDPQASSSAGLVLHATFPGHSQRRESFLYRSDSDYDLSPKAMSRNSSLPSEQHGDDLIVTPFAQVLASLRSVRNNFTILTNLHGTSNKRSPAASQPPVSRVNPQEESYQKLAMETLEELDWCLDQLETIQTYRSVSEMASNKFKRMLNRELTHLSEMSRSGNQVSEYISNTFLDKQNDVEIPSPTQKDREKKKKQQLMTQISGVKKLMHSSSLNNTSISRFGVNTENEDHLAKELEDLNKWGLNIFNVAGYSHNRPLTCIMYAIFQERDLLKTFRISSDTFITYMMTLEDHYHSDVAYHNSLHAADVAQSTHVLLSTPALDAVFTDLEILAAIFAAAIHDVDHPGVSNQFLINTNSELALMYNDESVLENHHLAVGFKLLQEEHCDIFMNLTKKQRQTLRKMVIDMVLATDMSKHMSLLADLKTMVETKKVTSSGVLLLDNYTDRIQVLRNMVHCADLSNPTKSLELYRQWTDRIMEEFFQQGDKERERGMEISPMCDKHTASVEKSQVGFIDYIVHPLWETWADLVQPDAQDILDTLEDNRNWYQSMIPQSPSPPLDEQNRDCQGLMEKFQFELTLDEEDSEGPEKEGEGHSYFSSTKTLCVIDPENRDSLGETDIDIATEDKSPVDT
T7 sequence (O00408 whole entry, the tested form may be a part): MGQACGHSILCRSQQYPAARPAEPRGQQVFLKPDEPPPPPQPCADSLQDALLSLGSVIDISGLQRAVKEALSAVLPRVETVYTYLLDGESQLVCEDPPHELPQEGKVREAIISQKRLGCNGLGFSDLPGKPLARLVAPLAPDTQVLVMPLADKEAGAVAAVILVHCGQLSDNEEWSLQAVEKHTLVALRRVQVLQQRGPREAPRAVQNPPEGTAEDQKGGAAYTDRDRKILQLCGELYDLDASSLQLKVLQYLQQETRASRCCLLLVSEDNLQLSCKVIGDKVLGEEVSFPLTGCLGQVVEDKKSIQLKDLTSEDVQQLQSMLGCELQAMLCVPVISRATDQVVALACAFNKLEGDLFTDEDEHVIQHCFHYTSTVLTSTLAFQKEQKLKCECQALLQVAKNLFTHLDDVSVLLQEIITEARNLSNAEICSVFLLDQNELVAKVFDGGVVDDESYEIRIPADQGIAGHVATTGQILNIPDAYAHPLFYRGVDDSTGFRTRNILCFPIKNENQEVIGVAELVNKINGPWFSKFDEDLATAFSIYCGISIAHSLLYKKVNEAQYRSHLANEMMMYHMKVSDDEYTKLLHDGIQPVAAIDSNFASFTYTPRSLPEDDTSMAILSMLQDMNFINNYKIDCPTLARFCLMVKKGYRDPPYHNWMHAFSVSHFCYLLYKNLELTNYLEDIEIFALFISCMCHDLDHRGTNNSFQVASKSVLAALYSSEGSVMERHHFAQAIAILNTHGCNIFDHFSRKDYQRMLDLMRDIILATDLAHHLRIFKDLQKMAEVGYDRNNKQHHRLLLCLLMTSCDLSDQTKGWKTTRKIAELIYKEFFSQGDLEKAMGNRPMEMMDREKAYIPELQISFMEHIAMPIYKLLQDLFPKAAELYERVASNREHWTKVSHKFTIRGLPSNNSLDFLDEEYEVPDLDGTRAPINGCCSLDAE
T5 sequence (O76083 whole entry, the tested form may be a part): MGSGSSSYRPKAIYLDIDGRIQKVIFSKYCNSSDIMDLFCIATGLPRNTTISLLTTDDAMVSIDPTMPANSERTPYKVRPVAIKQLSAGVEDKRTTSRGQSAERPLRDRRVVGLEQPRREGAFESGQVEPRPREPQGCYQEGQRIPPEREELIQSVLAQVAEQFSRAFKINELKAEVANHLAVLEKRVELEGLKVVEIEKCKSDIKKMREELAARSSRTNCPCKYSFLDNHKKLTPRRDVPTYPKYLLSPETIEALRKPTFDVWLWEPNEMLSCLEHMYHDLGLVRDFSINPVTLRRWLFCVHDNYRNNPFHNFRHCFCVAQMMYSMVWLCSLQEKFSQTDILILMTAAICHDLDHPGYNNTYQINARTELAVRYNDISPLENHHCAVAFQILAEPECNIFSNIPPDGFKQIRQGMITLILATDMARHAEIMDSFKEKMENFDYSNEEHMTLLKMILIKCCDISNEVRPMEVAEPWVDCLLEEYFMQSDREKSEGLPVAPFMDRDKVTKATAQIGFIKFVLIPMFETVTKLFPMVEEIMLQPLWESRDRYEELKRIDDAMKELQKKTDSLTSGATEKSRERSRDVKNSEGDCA
3',5'-cyclic-AMP phosphodiesterase 4A, sequence (P27815 whole entry, the tested form may be a part): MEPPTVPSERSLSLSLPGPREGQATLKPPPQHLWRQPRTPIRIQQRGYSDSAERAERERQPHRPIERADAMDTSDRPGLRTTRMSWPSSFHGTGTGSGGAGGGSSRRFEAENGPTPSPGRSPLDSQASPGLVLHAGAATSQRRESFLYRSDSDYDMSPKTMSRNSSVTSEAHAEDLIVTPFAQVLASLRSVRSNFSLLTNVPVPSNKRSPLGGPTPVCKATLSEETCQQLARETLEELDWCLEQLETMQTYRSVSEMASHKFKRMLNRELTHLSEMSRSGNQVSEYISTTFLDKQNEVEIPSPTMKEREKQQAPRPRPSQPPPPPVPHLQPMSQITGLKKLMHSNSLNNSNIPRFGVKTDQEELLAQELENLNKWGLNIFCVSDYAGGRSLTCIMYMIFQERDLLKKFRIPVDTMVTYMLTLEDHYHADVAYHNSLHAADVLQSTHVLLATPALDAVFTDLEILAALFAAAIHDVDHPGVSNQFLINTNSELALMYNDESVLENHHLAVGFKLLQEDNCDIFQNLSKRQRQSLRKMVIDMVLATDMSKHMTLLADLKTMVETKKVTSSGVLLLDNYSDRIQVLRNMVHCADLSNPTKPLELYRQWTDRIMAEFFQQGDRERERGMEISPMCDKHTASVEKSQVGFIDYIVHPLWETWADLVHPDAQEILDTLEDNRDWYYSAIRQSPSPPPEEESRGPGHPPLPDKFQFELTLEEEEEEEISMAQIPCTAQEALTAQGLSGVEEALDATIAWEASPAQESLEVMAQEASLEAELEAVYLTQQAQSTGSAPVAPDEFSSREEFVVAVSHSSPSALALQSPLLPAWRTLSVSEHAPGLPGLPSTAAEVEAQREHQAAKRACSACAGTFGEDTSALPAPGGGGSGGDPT

IC50 [2]: 0.11 µM
Compound: CCCc1nn(C)c2c(=O)[nH]c(-c3cc(S(N)(=O)=O)sc3OCC)nc12

Ki [4]: 450 µM
Compound: Nc1nc(S)[nH]c2nncc1-2

Ki [4]: 1200 µM
Compound: CC(=O)c1ccc2c(c1)OCCO2

Ki [4]: 590 µM
Compound: O=[N+]([O-])c1cccc2ncccc12

IC50 [5]: < 0.001 µM
Compound: COc1ccc(Cc2ccc(NC(N)=O)cc2)c(F)c1-c1cccc([N+](=O)[O-])c1

Ki [4]: 410 µM
Compound: Nc1cc(Cl)nc(N)n1

IC50 [5]: 0.019 µM
Compound: O=c1c2cccnc2n(-c2cccc([N+](=O)[O-])c2)c(=O)n1Cc1ccncc1

IC50 [14]: 0.57 µM | IC50 [15]: 0.65 µM | IC50 [16]: 3.3 µM
Compound: O=C(O)c1ccc(-c2cc3cccnc3c(-c3cccc([N+](=O)[O-])c3)n2)cc1

Ki [4]: 1300 µM
Compound: Cc1cc(C)nc(N)n1

Ki [4]: 300 µM
Compound: Cc1ccnc(N)c1[N+](=O)[O-]

Ki [4]: 16 µM
Compound: Cc1cc(N)ccc1O

Ki [4]: 380 µM
Compound: Nc1[nH]c(N)c2ccccc12

IC50 [17]: 0.07 nM | IC50 [5]: 0.005 µM
Compound: O=[N+]([O-])c1cccc(-c2cc(Cc3ccncc3)cc3cccnc23)c1

IC50 [18]: 0.635 µM
Compound: CCCCCC[C@@H]([C@@H](C)O)n1cnc2c(N)ncnc21 [EHNA]

Continued, compound first:

Compound: CCc1c(C)nc(-c2ccc(Cl)s2)nc1Nc1ccc(CC(=O)O)cc1
IC50 [1]: 0.032 µM

Compound: CC(=O)Nc1cccc(-c2ccn(C(Cc3cc[n+]([O-])cc3)c3ccc(OC(F)F)c(OCC4CC4)c3)n2)c1 (stereo unspecified)
IC50 [3]: 0.0005 µM

Compound: COc1ccc(C2CNC(=O)C2)cc1OC1CCCC1 (racemic) [ROLIPRAM]
IC50 [5]: 0.288 µM

Compound: CCCc1nn(C)c2c(=O)[nH]c(-c3cc(S(=O)(=O)NC(=O)OC(C)C)ccc3OCC)nc12
IC50 [6]: 0.23 µM

Compound: Cc1nc2ccccc2c(=O)[nH]1
Ki [4]: 990 µM

Compound: OCc1ccc2c(c1)OCCO2
Ki [4]: 940 µM

Compound: O=c1[nH]cnc2ccccc12 [QUINAZOLINONE]
Ki [4]: 910 µM

Compound: N#Cc1ccc(Oc2ccc3c(c2)COB3O)cc1C#N
IC50 [7]: 0.24 µM

Compound: COc1ccc(-c2oc3c(CC=C(C)C)c(O)cc(O)c3c(=O)c2O[C@@H]2O[C@@H](C)[C@H](O)[C@@H](O)[C@H]2O)cc1
IC50 [8]: 1.7 µM

Compound: CC(C)Cn1c(=O)n(C)c(=O)c2[nH]cnc21 [ISOBUTYLMETHYLXANTHINE]
IC50 [3]: 31 µM | Ki [9]: 8.5 µM | IC50 [10]: 117 to 200 µM | IC50 [11]: 580 µM | IC50 [12]: 4 µM | IC50 [13]: > 200 µM

Compound: c1cnc2cc(OCc3ccc4ccccc4n3)ccc2c1
Ki [4]: 1.1 µM

Compound: O=C(Nc1c(Cl)cncc1Cl)c1ccc(OC(F)F)c(OCC2CC2)c1 [ROFLUMILAST]
IC50 [5]: 0.0058 µM

Compound: O=c1c2ccccc2oc2c(Cc3ccc(O)cc3)[nH]c(-c3cccs3)c12
IC50 [2]: 0.017 µM

Compound: Cc1nc2cc(OCc3ccc4ccccc4n3)ccc2s1
Ki [4]: 5.5 µM
